Source: patent US20260078130A1, “NAMPT MODULATORS, PREPARATIONS, AND USES THEREOF” (SIRONAX LTD., priority 2022, published 2026)
Where two headings read alike, the source gives them in different places.

Legend:
[1] = biological target: T1, human enzyme NAMPT (full length) (Homo sapiens, UniProt P43490); assay: NMN fluorescence biochemical assay (stimulation of NMN synthesis by NAMPT); conditions: for EC50: concentration giving half-maximal activation, read-out: Enzymatic EC50; for Enzymatic Emax: fold change of maximal activation compared to DMSO
T1 construct: human enzyme NAMPT (full length)
Summary of the method: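 Full-length human NAMPT (100 nM) was preincubated 15 min at 37 °C with compound in 50 mM Tris-HCl pH 7.5, 10 mM MgCl2, 2 mM DTT, then reacted 1 h at 37 °C with 50 μM NAM, 100 μM PRPP, 4 mM ATP (stated solution concentrations). NMN was derivatised with acetophenone/KOH then formic acid and read at Ex/Em 382/445 nm; EC50 and Emax (fold over DMSO) reported.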

[2] = tested on: endogenous NAMPT in U2OS cells; assay: Cellular NAD+ modulation assay (NAD/NADH-Glo, U2OS cells); type: cell-based; conditions: Homo sapiens; for maximal fold induction: read-out: Cellular Emax
Summary of the method: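 NAD/NADH-Glo luminescence quantified NAD+ after acid treatment (60 °C, 15 min) and neutralization of DTAB lysates. Beforehand, U2OS cells seeded 16 h earlier received compound concentration series for 24 h at 37 °C. Values given as half-maximal activation concentration (EC50) and maximal fold change versus DMSO (Emax).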

[3] = NMN fluorescence assay, purified human NAMPT 100 nM
[4] = 24 hours incubation, cellular NAD+
[5] = NMN synthesis by purified human NAMPT (100 nM)
[6] = 24 hours incubation with compound

T1 sequence (P43490 whole entry): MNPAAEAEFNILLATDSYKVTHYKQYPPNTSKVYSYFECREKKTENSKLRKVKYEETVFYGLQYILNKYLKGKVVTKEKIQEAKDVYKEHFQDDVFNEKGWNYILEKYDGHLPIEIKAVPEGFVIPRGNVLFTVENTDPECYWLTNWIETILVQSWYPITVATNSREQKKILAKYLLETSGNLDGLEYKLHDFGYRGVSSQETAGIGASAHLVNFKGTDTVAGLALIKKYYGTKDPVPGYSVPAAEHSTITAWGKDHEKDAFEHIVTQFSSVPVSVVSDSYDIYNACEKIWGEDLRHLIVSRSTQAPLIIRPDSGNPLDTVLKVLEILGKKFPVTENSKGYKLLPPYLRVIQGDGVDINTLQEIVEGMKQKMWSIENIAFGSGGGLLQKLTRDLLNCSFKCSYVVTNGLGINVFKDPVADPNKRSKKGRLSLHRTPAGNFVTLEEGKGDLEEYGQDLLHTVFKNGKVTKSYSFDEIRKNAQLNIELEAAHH

Structure (SMILES) | EC50 [1, 3] [nM] | Enzymatic Emax [1] | EC50 [2, 4] [nM] | maximal fold induction [2, 4] | EC50 [1, 5] [nM] | EC50 [2, 6] [nM] | maximal fold induction [2, 6]
Cc1nn(C)c(C#N)c1CC1c2ccccc2C(=O)N1CC1CC2(CNC(=O)O2)C1 (centres unmarked) [Compound 479, 1,3-dimethyl-4-((3-oxo-2-((6-oxo-5-oxa-7-azaspiro[3.4]octan-2-yl)methyl)isoindolin-1-yl)methyl)-1H-pyrazole-5-carbonitrile] | 500 to 5000 | B (3≥B>2) | < 500 | > 1.5 |  |  | 
N#CCC1c2ccccc2C(=O)N1Cc1ccc(O)cc1 (centres unmarked) [Compound 27, 2-(2-(4-hydroxybenzyl)-3-oxoisoindolin-1-yl)acetonitrile] |  | A (A>3) |  |  | ≥ 5000 | 5000 to 50000 | > 1.5
Cn1ncc(Cl)c1CC1(C)c2cc(Br)ccc2C(=O)N1Cc1ccc2[nH]c(=O)oc2c1 (centres unmarked) [Compound 419, 6-((6-bromo-1-((4-chloro-1-methyl-1H-pyrazol-5-yl)methyl)-1-methyl-3-oxoisoindolin-2-yl)methyl)benzo[d]oxazol-2(3H)-one] | < 500 | A (A>3) | < 500 | > 1.5 |  |  | 
Cn1ncc(Cl)c1C[C@H]1c2ccccc2C(=O)N1C/C=C/c1c[nH]nn1 [Compound 312, (S,E)-2-(3-(1H-1,2,3-triazol-4-yl)allyl)-3-((4-chloro-1-methyl-1H-pyrazol-5-yl)methyl) isoindolin-1-one] |  | B (3≥B>2) |  |  | < 500 | < 500 | > 1.5
O=C1c2ccccc2C(Cc2ncccc2Br)N1C/C=C/c1c[nH]nn1 (centres unmarked) [Compound 328, (E)-2-(3-(1H-1,2,3-triazol-4-yl)allyl)-3-((3-bromopyridin-2-yl)methyl)isoindolin-1-one] | < 500 | B (3≥B>2) | < 500 | > 1.5 |  |  | 
O=C1c2ccc(Br)cc2C(=O)N1Cc1ccc(O)cc1 [Compound 16, 5-bromo-2-(4-hydroxybenzyl)isoindoline-1,3-dione] |  | A (A>3) |  |  | ≥ 5000 | 500 to 5000 | ≤ 1.2
COC1CCN(Cc2ccc3c(c2)[C@H](C)N(Cc2ccc4[nH]c(=O)oc4c2)C3=O)C1 (single isomer, unassigned) [Compound 188] |  | B (3≥B>2) |  |  | ≥ 5000 | 500 to 5000 | > 1.5
N#Cc1cncc(C#N)c1CC1c2ccccc2C(=O)N1CC1CC2(CNC(=O)O2)C1 (centres unmarked) [Compound 459, 4-((3-oxo-2-((6-oxo-5-oxa-7-azaspiro[3.4]octan-2-yl)methyl)isoindolin-1-yl)methyl)pyridine-3,5-dicarbonitrile] | 500 to 5000 | A (A>3) | < 500 | > 1.5 |  |  | 
CC1c2cc(CN3CCOCC3)ccc2C(=O)N1Cc1ccc2[nH]c(=O)oc2c1 (centres unmarked) [Compound 143, 6-((3-methyl-5-(morpholinomethyl)-1-oxoisoindolin-2-yl)methyl)benzo[d]oxazol-2(3H)-one] |  | A (A>3) |  |  | ≥ 5000 | 500 to 5000 | > 1.5
N#Cc1cccnc1CC1c2ccccc2C(=O)N1Cc1ccc2[nH]c(=O)oc2c1 (centres unmarked) [Compound 257, 2-((3-oxo-2-((2-oxo-2,3-dihydrobenzo[d]oxazol-6-yl)methyl)isoindolin-1-yl)methyl) nicotinonitrile] |  | A (A>3) |  |  | 500 to 5000 | < 500 | > 1.5
Cn1ncc(Cl)c1CC1c2ccccc2C(=O)N1Cc1ccc2[nH]nnc2c1 (centres unmarked) [Compound 279, 2-((1H-benzo[d][1,2,3]triazol-5-yl)methyl)-3-((4-chloro-1-methyl-1H-pyrazol-5-yl)methyl) isoindolin-1-one] |  | B (3≥B>2) |  |  | < 500 | < 500 | > 1.5
Cc1ccnc(C#N)c1CC1c2ccc(F)cc2C(=O)N1CC1CC2(CNC(=O)O2)C1 (centres unmarked) [Compound 449, 3-((5-fluoro-3-oxo-2-((6-oxo-5-oxa-7-azaspiro[3.4]octan-2-yl)methyl)isoindolin-1-yl)methyl)-4-methylpicolinonitrile] | 500 to 5000 | B (3≥B>2) | < 500 | > 1.5 |  |  | 
Cc1cccnc1CC1c2ccccc2C(=O)N1Cc1ccc2[nH]c(=O)oc2c1 (centres unmarked) [Compound 176, 6-((1-((3-methylpyridin-2-yl)methyl)-3-oxoisoindolin-2-yl)methyl)benzo[d]oxazol-2(3H)-one] |  | A (A>3) |  |  | < 500 | 500 to 5000 | > 1.5
O=C1c2ccccc2C(Cc2ncccc2Br)N1Cc1ccc2[nH]c(=O)oc2n1 (centres unmarked) [Compound 241, 5-((1-((3-bromopyridin-2-yl)methyl)-3-oxoisoindolin-2-yl)methyl)oxazolo[5,4-b]pyridin-2(1H)-one] |  | A (A>3) |  |  | 500 to 5000 | 500 to 5000 | 1.2 to 1.5
C[C@@H]1c2ccccc2C(=O)N1Cc1ccc2[nH]c(=O)oc2c1 [Compound 55, (R)-6-((1-methyl-3-oxoisoindolin-2-yl)methyl)benzo[d]oxazol-2(3H)-one] |  | B (3≥B>2) |  |  | ≥ 5000 | 5000 to 50000 | 1.2 to 1.5
Cc1cncc(C#N)c1CC1c2ccccc2C(=O)N1CC1CC2(CNC(=O)O2)C1 (centres unmarked) [Compound 492, 5-methyl-4-((3-oxo-2-((6-oxo-5-oxa-7-azaspiro[3.4]octan-2-yl)methyl)isoindolin-1-yl)methyl)nicotinonitrile] | < 500 | B (3≥B>2) | < 500 | > 1.5 |  |  | 
O=C1c2ccccc2C(Cc2ncccc2Br)N1Cc1ccc2[nH]ncc2c1 (centres unmarked) [Compound 240, 2-((1H-indazol-5-yl)methyl)-3-((3-bromopyridin-2-yl)methyl)isoindolin-1-one] |  | B (3≥B>2) |  |  | < 500 | < 500 | 1.2 to 1.5
N#Cc1ccncc1CC1c2ccccc2C(=O)N1Cc1ccc2[nH]c(=O)oc2c1 (centres unmarked) [Compound 203, 3-((3-oxo-2-((2-oxo-2,3-dihydrobenzo[d]oxazol-6-yl)methyl)isoindolin-1-yl)methyl) isonicotinonitrile] |  | A (A>3) |  |  | 500 to 5000 | < 500 | > 1.5
N#Cc1ccc(CC2c3ccccc3C(=O)N2Cc2ccc3[nH]c(=O)oc3c2)c(F)c1 (centres unmarked) [Compound 199, 3-fluoro-4-((3-oxo-2-((2-oxo-2,3-dihydrobenzo[d]oxazol-6-yl)methyl)isoindolin-1-yl)methyl)benzonitrile] |  | A (A>3) |  |  | < 500 | < 500 | > 1.5
Cn1ncc(Cl)c1CC1c2ccccc2C2(CC2)N1CC1CC2(CNC(=O)O2)C1 (centres unmarked) [Compound 539, 2-((3′-((4-chloro-1-methyl-1H-pyrazol-5-yl)methyl)spiro[cyclopropane-1,1′-isoindolin]-2′-yl)methyl)-5-oxa-7-azaspiro[3.4]octan-6-one] | ≥ 5000 | B (3≥B>2) | 500 to 5000 | 1.2 to 1.5 |  |  | 
Cc1ccnc(C(N)=O)c1CC1c2ccccc2C(=O)N1Cc1ccc2[nH]nnc2c1 (centres unmarked) [Compound 444, 3-((2-((1H-benzo[d][1,2,3]triazol-5-yl)methyl)-3-oxoisoindolin-1-yl)methyl)-4-methylpicolinamide] | 500 to 5000 | A (A>3) | 500 to 5000 | > 1.5 |  |  | 
CN1C[C@]2(C[C@H](CN3C(=O)c4ccccc4[C@@H]3Cc3c(Cl)cnn3C)C2)OC1=O [Compound 551, (2s,4R)-2-(((S)-1-((4-chloro-1-methyl-1H-pyrazol-5-yl)methyl)-3-oxoisoindolin-2-yl)methyl)-7-methyl-5-oxa-7-azaspiro[3.4]octan-6-one] | 500 to 5000 | B (3≥B>2) | < 500 | > 1.5 |  |  | 
Cc1ccnc(CC2c3ccccc3C(=O)N2Cc2ccc3[nH]c(=O)oc3c2)c1 (centres unmarked) [Compound 156, 6-((1-((4-methylpyridin-2-yl)methyl)-3-oxoisoindolin-2-yl)methyl)benzo[d]oxazol-2(3H)-one] |  | A (A>3) |  |  | ≥ 5000 | 500 to 5000 | > 1.5
Cn1ncc(Cl)c1CC1c2ccccc2C(=O)N1Cc1cc(=O)[nH]o1 (centres unmarked) [Compound 602, 5-((1-((4-chloro-1-methyl-1H-pyrazol-5-yl)methyl)-3-oxoisoindolin-2-yl)methyl)isoxazol-3(2H)-one] | ≥ 5000 | B (3≥B>2) | 500 to 5000 | > 1.5 |  |  | 
O=C1c2cnccc2CN1Cc1ccc(O)cc1 [Compound 42, 2-(4-hydroxybenzyl)-1,2-dihydro-3H-pyrrolo[3,4-c]pyridin-3-one] |  | A (A>3) |  |  | ≥ 5000 | 5000 to 50000 | > 1.5
COc1ccc2c(c1)C(=O)N(Cc1ccc3[nH]nnc3c1)C2Cc1c(Cl)cnn1C (centres unmarked) [Compound 414, 2-((1H-benzo[d][1,2,3]triazol-5-yl)methyl)-3-((4-chloro-1-methyl-1H-pyrazol-5-yl)methyl)-6-methoxyisoindolin-1-one] | 500 to 5000 | A (A>3) | < 500 | > 1.5 |  |  | 
